Data: BindingDB's records for doi:10.1074/jbc.M114.573162 (German Institute of Human Nutrition Potsdam-Rehbruecke, 2014)

The compounds below were run against T1, Olfactory receptor class A-like protein 1 (Zebrafish, UniProt A0A0R4IM31) (assay: Functional Calcium Imaging Assay). Conditions: pH 7.4.
T1 sequence (A0A0R4IM31 whole entry): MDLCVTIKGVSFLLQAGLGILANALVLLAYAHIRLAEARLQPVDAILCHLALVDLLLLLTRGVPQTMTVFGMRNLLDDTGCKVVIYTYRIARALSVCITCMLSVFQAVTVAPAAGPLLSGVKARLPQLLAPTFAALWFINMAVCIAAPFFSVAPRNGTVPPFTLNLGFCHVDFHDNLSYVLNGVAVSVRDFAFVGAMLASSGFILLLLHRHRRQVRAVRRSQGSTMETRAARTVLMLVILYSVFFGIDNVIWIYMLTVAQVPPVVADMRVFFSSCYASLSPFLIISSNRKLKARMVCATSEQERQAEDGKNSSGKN
Procedure: Briefly, HEK 293T cells stably expressing the G protein-chimera Gα16gust44 were seeded onto 96-well plates coated with 10 μg/ml of poly-D-lysine. The next day cells were transiently transfected with ORA1, ORA2, or human bitter taste receptor TAS2R16 constructs using Lipofectamine 2000 (Invitrogen). After 24 h the cells were washed with buffer C1 (130 mM NaCl, 5 mM KCl, 10 mM Hepes, pH 7.4, 2 mM CaCl2, 10 mM glucose), and loaded with the calcium-responsive dye Fluo-4 AM in the presence of 1 mM probenecide, an inhibitor of […]. To remove excessive fluorescence dye, cells were washed three times with buffer C1 and transferred into a fluorometric imaging plate reader (FLIPR, Molecular Devices) for measurement. Test substances were dissolved in C1 buffer and the changes in fluorescence after application of test substances were monitored.
Work on O=C(O)Cc1ccc(Cl)cc1 [2-(4-chlorophenyl)acetic acid] yielded an EC50 of 16.6 µM.
O=C(O)Cc1ccc(O)cc1 [2-(4-hydroxyphenyl)acetic acid] was tested, and the EC50 was 1.9 µM.
With O=C(O)Cc1ccc2c(c1)OCO2 [3,4-Methylenedioxyphenylacetic acid] the EC50 was 16 µM.
Compound O=C(O)CCc1ccc(O)cc1 [3-(4-Hydroxyphenyl)-propionic acid] has an EC50 of 192 µM.
For Nc1ccc(CC(=O)O)cc1 [4-Aminophenylacetic acid], the EC50 was 91.7 µM.
Compound COc1ccc(CC(=O)O)cc1 [4-Methoxyphenylacetic acid] has an EC50 of 16.5 µM.
Cc1ccc(C(=O)CC(=O)O)cc1 [4-Toloylacetic acid] was tested, and the EC50 was 14.8 µM.
In the case of CC(C(=O)O)c1ccc(O)cc1 (stereo not given) [Methyl-4-hydroxyphenylacetic acid], the EC50 is reported as 221 µM.
O=C(O)Cc1ccccc1 [Phenylacetate, XIX] was tested, and the EC50 was 30.5 µM.
Work on O=C(O)Cc1ccc(O)c(O)c1 [SMR000326727] yielded an EC50 of 22.8 µM.
